Converted amounts (≈) assume the structure as drawn.
How the values were obtained:
Talaromyces funiculosus = assay: Antifungal activity against Penicillium funiculosum ATCC 36839 assessed as growth inhibition after 72 hrs at 28 degC by serial dilution method; assay type: functional; conditions: for MIC: Talaromyces funiculosus, ATCC 36839, 72 h
Aspergillus fumigatus = assay: Antifungal activity against Aspergillus fumigatus ATCC 1022 assessed as growth inhibition after 72 hrs at 28 degC by serial dilution method; assay type: functional; conditions: for MIC: Aspergillus fumigatus, ATCC 1022, 72 h
Trichoderma viride = assay: Antifungal activity against Trichoderma viride IAM 5061 assessed as growth inhibition after 72 hrs at 28 degC by serial dilution method; assay type: functional; conditions: for MIC: Trichoderma viride, IAM 5061, 72 h
Aspergillus ochraceus = assay: Antifungal activity against Aspergillus ochraceus ATCC 12066 assessed as growth inhibition after 72 hrs at 28 degC by serial dilution method; assay type: functional; conditions: for MIC: Aspergillus ochraceus, ATCC 12066, 72 h
Penicillium ochrochloron = assay: Antifungal activity against Penicillium ochrochloron ATCC 9112 assessed as growth inhibition after 72 hrs at 28 degC by serial dilution method; assay type: functional; conditions: for MIC: Penicillium ochrochloron, ATCC 9112, 72 h
Aspergillus niger = assay: Antifungal activity against Aspergillus niger ATCC 6275 assessed as growth inhibition after 72 hrs at 28 degC by serial dilution method; assay type: functional; conditions: for MIC: Aspergillus niger, ATCC 6275, 72 h
Candida albicans = assay: Antifungal activity against Candida albicans ATCC 10231 assessed as growth inhibition after 72 hrs at 28 degC by serial dilution method; assay type: functional; conditions: for MIC: Candida albicans, ATCC 10231, 72 h
Aspergillus versicolor = assay: Antifungal activity against Aspergillus versicolor ATCC 11730 assessed as growth inhibition after 72 hrs at 28 degC by serial dilution method; assay type: functional; conditions: for MIC: Aspergillus versicolor, ATCC 11730, 72 h
Micrococcus flavus = assay: Antibacterial activity against Micrococcus flavus ATCC 10240 assessed as growth inhibition after 24 hrs at 37 degC by iodonitrotetrazolium chloride staining based microdilution broth assay; assay type: functional; conditions: ATCC 10240, 24 h
Enterobacter cloacae = assay: Antibacterial activity against human isolate of Enterobacter cloacae assessed as growth inhibition after 24 hrs at 37 degC by iodonitrotetrazolium chloride staining based microdilution broth assay; assay type: functional
Bacillus cereus = assay: Antibacterial activity against clinical isolates of Bacillus cereus assessed as growth inhibition after 24 hrs at 37 degC by iodonitrotetrazolium chloride staining based microdilution broth assay; assay type: functional
Listeria monocytogenes = assay: Antibacterial activity against Listeria monocytogenes NCTC 7973 assessed as growth inhibition after 24 hrs at 37 degC by iodonitrotetrazolium chloride staining based microdilution broth assay; assay type: functional; conditions: NCTC 7973, 24 h
[1] = molecular target: Human immunodeficiency virus type 1 reverse transcriptase (Human immunodeficiency virus 1) (UniProt Q72547); assay: Inhibition of HIV1 reverse transcriptase assessed as residual enzyme activity by measuring reduction in [3H]dTTP incorporation into poly(rA)-oligo(dT) at 4 uM incubated for 15 mins by scintillation counting method relative to control
Staphylococcus aureus = assay: Antibacterial activity against Staphylococcus aureus ATCC 6538 assessed as growth inhibition after 24 hrs at 37 degC by iodonitrotetrazolium chloride staining based microdilution broth assay; assay type: functional; conditions: ATCC 6538, 24 h
Salmonella typhimurium = assay: Antibacterial activity against Salmonella typhimurium ATCC 13311 assessed as growth inhibition after 24 hrs at 37 degC by iodonitrotetrazolium chloride staining based microdilution broth assay; assay type: functional, Salmonella enterica subsp. enterica serovar Typhimurium; conditions: Salmonella enterica, ATCC 13311, 24 h
Escherichia coli = assay: Antibacterial activity against Escherichia coli ATCC 35210 assessed as growth inhibition after 24 hrs at 37 degC by iodonitrotetrazolium chloride staining based microdilution broth assay; assay type: functional; conditions: ATCC 35210, 24 h
Pseudomonas aeruginosa = assay: Antibacterial activity against Pseudomonas aeruginosa ATCC 27853 assessed as growth inhibition after 24 hrs at 37 degC by iodonitrotetrazolium chloride staining based microdilution broth assay; assay type: functional; conditions: ATCC 27853, 24 h

In the case of `c1ccc(-c2ccc(C(c3ccccc3)n3ccnc3)cc2)cc1` (centres undefined) [BIFONAZOLE], the MFC99.5 (Talaromyces funiculosus) is reported as 80 ×10⁻² umol/ml, the MIC (Talaromyces funiculosus) is reported as 640 µM (≈ 199 µg/mL) and the MFC99.5 (Aspergillus fumigatus) is reported as 64 ×10⁻² umol/ml. For the same compound, the MIC (Aspergillus fumigatus) was 480 µM (≈ 149 µg/mL), the MFC99.5 (Trichoderma viride) was 80 ×10⁻² umol/ml and the MIC (Trichoderma viride) was 640 µM (≈ 199 µg/mL). For the same compound, the MFC99.5 (Aspergillus ochraceus) was 80 ×10⁻² umol/ml, the MIC (Aspergillus ochraceus) was 480 µM (≈ 149 µg/mL) and the MFC99.5 (Penicillium ochrochloron) was 64 ×10⁻² umol/ml. The MIC (Penicillium ochrochloron) was 480 µM (≈ 149 µg/mL), the MFC99.5 (Aspergillus niger) was 64 ×10⁻² umol/ml and the MIC (Aspergillus niger) was 480 µM (≈ 149 µg/mL). The MFC99.5 (Candida albicans) was 48 ×10⁻² umol/ml, the MIC (Candida albicans) was 320 µM (≈ 99.3 µg/mL) and the MFC99.5 (Aspergillus versicolor) was 64 ×10⁻² umol/ml. For the same compound, the MIC (Aspergillus versicolor) was 320 µM (≈ 99.3 µg/mL).

`COc1ccc(OC)c(C2SCC(=O)N2c2nc(C34CC5CC(CC(C5)C3)C4)cs2)c1` (centres undefined) was tested, and the MBC (Micrococcus flavus) was 438 µM (≈ 200 µg/mL), the MIC (Micrococcus flavus) was 219 µM (≈ 100 µg/mL) and the MFC99.5 (Talaromyces funiculosus) was 43.8 ×10⁻² umol/ml. It also gave an MIC (Talaromyces funiculosus) of 219 µM (≈ 100 µg/mL), an MBC (Enterobacter cloacae) of 438 µM (≈ 200 µg/mL) and an MIC (Enterobacter cloacae) of 219 µM (≈ 100 µg/mL). It also gave an MBC (Bacillus cereus) of 438 µM (≈ 200 µg/mL), an MIC (Bacillus cereus) of 219 µM (≈ 100 µg/mL) and an MBC (Listeria monocytogenes) of 657 µM (≈ 300 µg/mL). For the same compound, the MIC (Listeria monocytogenes) was 438 µM (≈ 200 µg/mL), the MFC99.5 (Aspergillus fumigatus) was 32.85 ×10⁻² umol/ml and the MIC (Aspergillus fumigatus) was 219 µM (≈ 100 µg/mL). For the same compound, the MFC99.5 (Trichoderma viride) was 21.9 ×10⁻² umol/ml, the MIC (Trichoderma viride) was 219 µM (≈ 100 µg/mL) and the Activity [1] was 80.7%. For the same compound, the MBC (Staphylococcus aureus) was 657 µM (≈ 300 µg/mL), the MIC (Staphylococcus aureus) was 438 µM (≈ 200 µg/mL) and the MFC99.5 (Aspergillus ochraceus) was 32.85 ×10⁻² umol/ml. For the same compound, the MIC (Aspergillus ochraceus) was 110 µM (≈ 50 µg/mL), the MFC99.5 (Penicillium ochrochloron) was 43.8 ×10⁻² umol/ml and the MIC (Penicillium ochrochloron) was 219 µM (≈ 100 µg/mL). For the same compound, the MBC (Salmonella typhimurium) was 438 µM (≈ 200 µg/mL), the MIC (Salmonella typhimurium) was 219 µM (≈ 100 µg/mL) and the MBC (Escherichia coli) was 438 µM (≈ 200 µg/mL). It also gave an MIC (Escherichia coli) of 219 µM (≈ 100 µg/mL), an MBC (Pseudomonas aeruginosa) of 438 µM (≈ 200 µg/mL) and an MIC (Pseudomonas aeruginosa) of 438 µM (≈ 200 µg/mL). The MFC99.5 (Aspergillus niger) was 87.6 ×10⁻² umol/ml, the MIC (Aspergillus niger) was 219 µM (≈ 100 µg/mL) and the MFC99.5 (Candida albicans) was 109.5 ×10⁻² umol/ml. The MIC (Candida albicans) was 876 µM (≈ 400 µg/mL), the MFC99.5 (Aspergillus versicolor) was 32.85 ×10⁻² umol/ml and the MIC (Aspergillus versicolor) was 219 µM (≈ 100 µg/mL).

— ChEMBL document CHEMBL3734713, “4-Thiazolidinone derivatives as potent antimicrobial agents: microwave-assisted synthesis, biological evaluation and docking studies” (2015)
